Target: T1, M CPT-I (Homo sapiens, UniProt Q92523)
T1 sequence (Q92523 1-772): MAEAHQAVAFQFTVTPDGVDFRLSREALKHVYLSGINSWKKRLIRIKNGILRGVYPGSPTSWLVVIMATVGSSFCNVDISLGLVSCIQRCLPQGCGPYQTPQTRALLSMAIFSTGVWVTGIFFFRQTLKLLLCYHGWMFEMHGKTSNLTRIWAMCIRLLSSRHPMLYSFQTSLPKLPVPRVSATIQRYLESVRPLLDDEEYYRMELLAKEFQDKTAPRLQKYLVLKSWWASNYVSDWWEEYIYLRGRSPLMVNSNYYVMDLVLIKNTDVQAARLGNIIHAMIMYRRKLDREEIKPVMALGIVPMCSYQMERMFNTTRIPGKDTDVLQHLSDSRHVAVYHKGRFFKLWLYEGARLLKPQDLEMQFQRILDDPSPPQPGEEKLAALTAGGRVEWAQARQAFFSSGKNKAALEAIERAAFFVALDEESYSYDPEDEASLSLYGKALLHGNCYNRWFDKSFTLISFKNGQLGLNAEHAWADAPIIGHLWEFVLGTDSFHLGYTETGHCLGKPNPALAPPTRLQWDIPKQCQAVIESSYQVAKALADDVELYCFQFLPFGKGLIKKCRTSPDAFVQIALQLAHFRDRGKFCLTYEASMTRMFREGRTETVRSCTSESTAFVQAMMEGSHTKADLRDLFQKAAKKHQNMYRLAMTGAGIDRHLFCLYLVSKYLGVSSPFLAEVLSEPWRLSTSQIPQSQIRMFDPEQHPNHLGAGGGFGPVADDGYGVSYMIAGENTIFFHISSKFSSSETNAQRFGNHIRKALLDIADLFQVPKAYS
Assay: LC/MS HTS assay, malonyl-CoA inhibition of human MCPT-I (palmitoyl-CoA and carnitine converted to palmitoyl carnitine)
Assay type: biochemical
Details: FIG. 9B
Text: The biological activity used for the assay is the conversion by CPT-1 of palmitoyl-CoA (fatty acid-CoA) and carnitine to palmitoyl carnitine complex and free CoA.
The biological activity used for the assay is the conversion by CPT-1 of palmitoyl-CoA and carnitine to palmitoyl carnitine complex and free CoA.

`CC(C)(COP(=O)(O)OP(=O)(O)OC[C@H]1O[C@@H](n2cnc3c(N)ncnc32)[C@H](O)[C@@H]1OP(=O)(O)O)[C@@H](O)C(=O)NCCC(=O)NCCSC(=O)CC(=O)O` [Malonyl-CoA] gave an IC50 of 41 nM.

— patent US20080305958A1, “Process for Liquid or gas Chromatography/Mass Spectrometry Based Biomolecular Screening for Drug Discovery” (priority 2004, published 2008)
